Assay results published in ChEMBL document CHEMBL1201862, “PubChem BioAssay data set” (2004).
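Tested at 5 concentrations; 48 h exposure; 96-well plates; endpoints linearly interpolated, else capped at highest concentration. Abbreviation: GI50, concentration required for 50% inhibition of growth.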 Active and inactive are the calls of the source. Rule as the data show it: active = GI50 up to about 1.1 µM and inactive = higher.

Columns and labels:
Experiment in all cases: NCI tumour cell line growth inhibition, 48 h
SR = tested on: SR
LOX IMVI = tested on: LOX IMVI
RPMI-8226 = tested on: RPMI-8226
Malme-3M = tested on: Malme-3M
HCT-15 = tested on: HCT-15
BT-549 = tested on: BT-549
CAKI-1 = tested on: CAKI-1
MDA-N = tested on: MDA-N
HL-60 = tested on: HL-60
TK-10 = tested on: TK-10
UACC-257 = tested on: UACC-257
OVCAR-5 = tested on: OVCAR-5
HCC 2998 = tested on: HCC 2998
SK-MEL-28 = tested on: SK-MEL-28
UACC-62 = tested on: UACC-62
HT-29 = tested on: HT-29
NCI-H226 = tested on: NCI-H226
HCT-116 = tested on: HCT-116
SN12C = tested on: SN12C
PC-3 = tested on: PC-3
Hs-578T = tested on: Hs-578T
IGROV-1 = tested on: IGROV-1
OVCAR-8 = tested on: OVCAR-8
SNB-75 = tested on: SNB-75
T47D = tested on: T47D
UO-31 = tested on: UO-31
DU-145 = tested on: DU-145
SK-MEL-2 = tested on: SK-MEL-2
NCI-H23 = tested on: NCI-H23
HOP-62 = tested on: HOP-62
HOP-92 = tested on: HOP-92
MDA-MB-231 = tested on: MDA-MB-231
MDA-MB-435 = tested on: MDA-MB-435
K562 = tested on: K562
MOLT-4 = tested on: MOLT-4
MCF7 = tested on: MCF7
M14 = tested on: M14
SF-295 = tested on: SF-295
CCRF-CEM = tested on: CCRF-CEM
NCI-H460 = tested on: NCI-H460
OVCAR-3 = tested on: OVCAR-3
RXF 393 = tested on: RXF 393
OVCAR-4 = tested on: OVCAR-4
NCI/ADR-RES = tested on: NCI/ADR-RES
SK-MEL-5 = tested on: SK-MEL-5
KM12 = tested on: KM12
SNB-19 = tested on: SNB-19
SK-OV-3 = tested on: SK-OV-3
A498 = tested on: A498
COLO 205 = tested on: COLO 205
U-251 = tested on: U-251
SW-620 = tested on: SW-620
SF-268 = tested on: SF-268
A549 = tested on: A549
SF-539 = tested on: SF-539
786-0 = tested on: 786-0
EKVX = tested on: EKVX
ACHN = tested on: ACHN
NCI-H522 = tested on: NCI-H522

COc1ccc2cc(/C=N/NC(=O)Nc3ccccc3)ccc2c1
GI50 (SR): > 100 µM (inactive)
GI50 (LOX IMVI): > 100 µM (inactive)
GI50 (RPMI-8226): > 100 µM (inactive)
GI50 (Malme-3M): > 100 µM (inactive)
GI50 (HCT-15): > 100 µM
GI50 (BT-549): > 100 µM (inactive)
GI50 (CAKI-1): > 100 µM (inactive)
GI50 (MDA-N): > 100 µM (inactive)
GI50 (HL-60): > 100 µM (inactive)
GI50 (TK-10): > 100 µM (inactive)
GI50 (UACC-257): > 100 µM (inactive)
GI50 (OVCAR-5): > 100 µM (inactive)
GI50 (HCC 2998): > 100 µM (inactive)
GI50 (SK-MEL-28): > 10 µM (inactive)
GI50 (UACC-62): > 100 µM (inactive)
GI50 (HT-29): > 100 µM (inactive)
GI50 (NCI-H226): > 100 µM (inactive)
GI50 (HCT-116): > 100 µM (inactive)
GI50 (SN12C): > 100 µM (inactive)
GI50 (PC-3): > 100 µM (inactive)
GI50 (Hs-578T): > 100 µM (inactive)
GI50 (IGROV-1): > 100 µM (inactive)
GI50 (OVCAR-8): > 100 µM (inactive)
GI50 (SNB-75): > 100 µM (inactive)
GI50 (T47D): > 100 µM (inactive)
GI50 (UO-31): > 100 µM (inactive)
GI50 (DU-145): > 100 µM (inactive)
GI50 (SK-MEL-2): > 100 µM (inactive)
GI50 (NCI-H23): > 100 µM (inactive)
GI50 (HOP-62): > 100 µM (inactive)
GI50 (HOP-92): > 100 µM (inactive)
GI50 (MDA-MB-231): 81.3 µM (inactive)
GI50 (MDA-MB-435): > 100 µM (inactive)
GI50 (K562): > 100 µM (inactive)
GI50 (MOLT-4): > 100 µM (inactive)
GI50 (MCF7): > 100 µM (inactive)
GI50 (M14): > 100 µM (inactive)
GI50 (SF-295): > 100 µM (inactive)
GI50 (CCRF-CEM): > 100 µM (inactive)
GI50 (NCI-H460): > 100 µM (inactive)
GI50 (OVCAR-3): > 100 µM (inactive)
GI50 (RXF 393): > 10 µM (inactive)
GI50 (OVCAR-4): > 100 µM (inactive)
GI50 (NCI/ADR-RES): > 100 µM (inactive)
GI50 (SK-MEL-5): > 100 µM (inactive)
GI50 (KM12): > 100 µM (inactive)
GI50 (SNB-19): > 100 µM (inactive)
GI50 (SK-OV-3): > 100 µM (inactive)
GI50 (A498): > 100 µM (inactive)
GI50 (COLO 205): > 100 µM (inactive)
GI50 (U-251): > 100 µM (inactive)
GI50 (SW-620): > 100 µM (inactive)

CCOC(=O)c1cc(C2CCN(CC(C)CC)C2=S)c(-c2cc(C)no2)[nH]1 (centres undefined)
GI50 (SR): 56.5 µM (inactive)
GI50 (LOX IMVI): 41.8 µM (inactive)
GI50 (RPMI-8226): 66.1 µM (inactive)
GI50 (Malme-3M): > 100 µM (inactive)
GI50 (HCT-15): > 100 µM
GI50 (BT-549): 83.9 µM (inactive)
GI50 (CAKI-1): > 100 µM (inactive)
GI50 (MDA-N): > 100 µM (inactive)
GI50 (HL-60): 35 µM (inactive)
GI50 (UACC-257): > 100 µM (inactive)
GI50 (OVCAR-5): > 100 µM (inactive)
GI50 (HCC 2998): > 100 µM (inactive)
GI50 (SK-MEL-28): > 100 µM (inactive)
GI50 (UACC-62): 72.3 µM (inactive)
GI50 (HT-29): 41.7 µM (inactive)
GI50 (NCI-H226): 55.3 µM (inactive)
GI50 (HCT-116): 88.9 µM (inactive)
GI50 (SN12C): > 100 µM (inactive)
GI50 (PC-3): 41.6 µM (inactive)
GI50 (SF-268): 69.3 µM (inactive)
GI50 (Hs-578T): 89.7 µM (inactive)
GI50 (IGROV-1): > 100 µM (inactive)
GI50 (OVCAR-8): 68.4 µM (inactive)
GI50 (SNB-75): 57.9 µM (inactive)
GI50 (T47D): 50.4 µM (inactive)
GI50 (A549): 51.4 µM (inactive)
GI50 (SF-539): > 100 µM (inactive)
GI50 (UO-31): 17.3 µM (inactive)
GI50 (DU-145): > 100 µM (inactive)
GI50 (SK-MEL-2): > 100 µM (inactive)
GI50 (NCI-H23): > 100 µM (inactive)
GI50 (HOP-62): > 100 µM (inactive)
GI50 (HOP-92): 38 µM (inactive)
GI50 (MDA-MB-231): 29.6 µM (inactive)
GI50 (MDA-MB-435): > 100 µM (inactive)
GI50 (K562): 77.4 µM (inactive)
GI50 (786-0): > 100 µM (inactive)
GI50 (EKVX): 14.7 µM (inactive)
GI50 (MOLT-4): 44.1 µM (inactive)
GI50 (MCF7): 89.3 µM (inactive)
GI50 (M14): > 100 µM (inactive)
GI50 (SF-295): > 100 µM (inactive)
GI50 (CCRF-CEM): > 100 µM (inactive)
GI50 (NCI-H460): > 100 µM (inactive)
GI50 (OVCAR-3): > 100 µM (inactive)
GI50 (RXF 393): > 100 µM (inactive)
GI50 (OVCAR-4): > 100 µM (inactive)
GI50 (NCI/ADR-RES): 41.3 µM (inactive)
GI50 (SK-MEL-5): 48.4 µM (inactive)
GI50 (KM12): 49.2 µM (inactive)
GI50 (SNB-19): 46.1 µM (inactive)
GI50 (SK-OV-3): > 100 µM (inactive)
GI50 (A498): > 100 µM (inactive)
GI50 (COLO 205): 37.4 µM (inactive)
GI50 (U-251): > 100 µM (inactive)
GI50 (SW-620): > 100 µM (inactive)

NS(=O)(=O)c1cc2c(cc1Cl)NC(Cc1ccccc1)NS2(=O)=O (centres undefined) [BENZYLHYDROCHLOROTHIAZIDE]
GI50 (SR): 61 µM (inactive)
GI50 (LOX IMVI): 99.8 µM (inactive)
GI50 (RPMI-8226): 53.1 µM (inactive)
GI50 (Malme-3M): > 100 µM (inactive)
GI50 (HCT-15): > 100 µM
GI50 (BT-549): > 100 µM (inactive)
GI50 (CAKI-1): > 100 µM (inactive)
GI50 (MDA-N): 53.7 µM (inactive)
GI50 (TK-10): > 100 µM (inactive)
GI50 (UACC-257): > 100 µM (inactive)
GI50 (OVCAR-5): > 100 µM (inactive)
GI50 (HCC 2998): > 100 µM (inactive)
GI50 (SK-MEL-28): > 100 µM (inactive)
GI50 (UACC-62): > 100 µM (inactive)
GI50 (HT-29): > 100 µM (inactive)
GI50 (NCI-H226): > 100 µM (inactive)
GI50 (HCT-116): 46.1 µM (inactive)
GI50 (SN12C): > 100 µM (inactive)
GI50 (PC-3): > 100 µM (inactive)
GI50 (SF-268): > 100 µM (inactive)
GI50 (Hs-578T): > 100 µM (inactive)
GI50 (IGROV-1): > 100 µM (inactive)
GI50 (OVCAR-8): > 100 µM (inactive)
GI50 (SNB-75): > 100 µM (inactive)
GI50 (T47D): > 100 µM (inactive)
GI50 (A549): > 100 µM (inactive)
GI50 (SF-539): 45.1 µM (inactive)
GI50 (UO-31): > 100 µM (inactive)
GI50 (DU-145): > 100 µM (inactive)
GI50 (SK-MEL-2): > 100 µM (inactive)
GI50 (NCI-H23): > 100 µM (inactive)
GI50 (HOP-62): > 100 µM (inactive)
GI50 (HOP-92): > 100 µM (inactive)
GI50 (MDA-MB-231): > 100 µM (inactive)
GI50 (ACHN): > 100 µM (inactive)
GI50 (MDA-MB-435): 45.1 µM (inactive)
GI50 (K562): 63.1 µM (inactive)
GI50 (786-0): > 100 µM (inactive)
GI50 (EKVX): > 100 µM (inactive)
GI50 (MCF7): 60.4 µM (inactive)
GI50 (M14): > 100 µM (inactive)
GI50 (SF-295): > 100 µM (inactive)
GI50 (NCI-H460): > 100 µM (inactive)
GI50 (OVCAR-3): > 100 µM (inactive)
GI50 (RXF 393): > 100 µM (inactive)
GI50 (OVCAR-4): > 100 µM (inactive)
GI50 (NCI/ADR-RES): > 100 µM (inactive)
GI50 (SK-MEL-5): > 100 µM (inactive)
GI50 (KM12): > 100 µM (inactive)
GI50 (SNB-19): > 100 µM (inactive)
GI50 (SK-OV-3): > 100 µM (inactive)
GI50 (A498): > 100 µM (inactive)
GI50 (COLO 205): > 100 µM (inactive)
GI50 (NCI-H522): > 100 µM (inactive)
GI50 (U-251): > 100 µM (inactive)
GI50 (SW-620): 41.7 µM (inactive)
